# Source: patent US6372737B1 (priority 1996, dated 2002)
# Legend:
# Format in all cases: in vivo
# [1] = system: Phytophthora infestans; experiment: whole plant or invertebrate; settings: Phytophthora infestans, in Solanum lycopersicum, 72 h, read-out: % efficacy
# [2] = system: Sphaerotheca fuliginea; experiment: Sphaerotheca test (cucumber)/protective; settings: Podosphaera fuliginea, 240 h, application rate 2.5 g/ha, protective, 10 days after inoculation, read-out: % efficacy
# Method: To test for protective activity, young plants are sprayed with the commercial active compound preparation at the stated application rate. After the spray coating has dried on, the plants are inoculated with an aqueous spore suspension of Sphaerotheca fuliginea. The plants then remain in a greenhouse at about 23° C. and about 70% relative atmospheric humidity.
# Evaluation is carried out 10 days after the inoculation. 0% means an efficacy corresponding to that of the control, and an efficacy of 100% means that no infection is observed.
# [3] = system: Botrytis cinerea; experiment: Botrytis test (beans)/protective; settings: 48 h, application rate 50 g/ha, protective, two days after inoculation, read-out: % efficacy
# Method: To test for protective activity, young plants are sprayed with the commercial active compound preparation at the stated application rate. After the spray coating has dried on, 2 small pieces of agar covered with Botrytis cinerea are placed on each leaf. The inoculated plants are placed in a darkened chamber at about 20° C. and 100% relative atmospheric humidity.
# Two days after the inoculation, the size of the infected spots on the leaves is evaluated. 0% means an efficacy corresponding to that of the control, and an efficacy of 100% means that no infection is observed.
# [4] = system: Fusarium nivale; experiment: Fusarium nivale test (triticale)/seed treatment; settings: dry seed dressing, about 3 weeks after sowing
# Method: About 3 weeks after sowing, the plants are evaluated for symptoms of snow mould.
# [5] = system: Rhizoctonia solani; experiment: Rhizoctonia solani test (cotton)/seed treatment; settings: application rate 75 mg/kg of seed, dry seed dressing, after 8 days
# Method: The active compounds are applied as dry seed dressing. This is prepared by extending the respective active compound with ground mineral to give a finely pulverulent mixture which ensures uniform distribution on the seed surface.
# To dress the seed, the infected seed together with the seed dressing is shaken for 3 minutes in a sealed glass flask.
# 2×50 corns of seed are sown at a depth of 2 cm into standard soil which is infected with Rhizoctonia solani, and the seeds are cultivated in a greenhouse at a temperature of about 22° C. in seed trays which receive a light regimen of 15 hours per day.
# Evaluation is carried out after 8 days. 0% means an efficacy which corresponds to that of the untreated control, while an efficacy of 100% means that no disease is observed.
# [6] = system: Erysiphe graminis f.sp. hordei; experiment: Erysiphe test (barley)/curative; settings: curative, 7 days after inoculation
# Method: (§1) Solvent: 25 parts by weight of N,N-dimethylacetamide
# (§2) Emulsifier: 0.6 part by weight of alkylaryl polyglycol ether
# (§3) To produce a suitable preparation of active compound, 1 part by weight of active compound or active compound combination is mixed with the stated amounts of solvent and emulsifier, and the concentrate is diluted with water to the desired concentration.
# To test for curative activity, young plants are dusted with spores of Erysiphe graminis f.sp. hordei. 48 hours after the inoculation, the plants are sprayed with the preparation of active compound at the stated application rate.
# (§4) The plants are placed in a greenhouse at a temperature of about 20° C. and a relative atmospheric humidity of about 80%, in order to promote the development of mildew pustules.
# (§5) Evaluation is carried out 7 days after the inoculation. 0% means an efficacy which corresponds to that of the control, whereas an efficacy of 100% means that no infection is observed.
# [7] = system: Erysiphe graminis f.sp. tritici; experiment: Erysiphe test (wheat)/curative; settings: curative, 7 days after inoculation
# Method: as §1, §2, §3
# To test for curative activity, young plants are dusted with spores of Erysiphe graminis f.sp. tritici. 48 hours after the inoculation, the plants are sprayed with the preparation of active compound at the stated application rate.
# as §4, §5
# [8] = system: Leptosphaeria nodorum; experiment: Leptosphaeria nodorum test (wheat)/curative; settings: curative, 10 days after inoculation
# Method: as §1, §2, §3
# (§6) To test for curative activity, young plants are sprayed with a conidia suspension of Leptosphaeria nodorum. The plants remain in an incubation cabin at 20° C. and 100% relative atmospheric humidity for 48 hours and are then sprayed with the preparation of active compound at the stated application rate.
# The plants are placed in a greenhouse at a temperature of about 15° C. and a relative atmospheric humidity of about 80%.
# (§7) Evaluation is carried out 10 days after the inoculation. 0% means an efficacy which corresponds to that of the control, whereas an efficacy of 100% means that no infection is observed.
# [9] = system: Pyrenophora teres; experiment: Pyrenophora teres test (barley)/curative; settings: application rate 6.25 g/ha, curative, 7 days after inoculation
# Method: as §1, §2, §3
# as §6, with “Pyrenophora teres.” for “Leptosphaeria nodorum.”, “hours. The plants” for “hours and”, “subsequently” for “then”
# The plants are placed in a greenhouse at a temperature of about 20° C. and a relative atmospheric humidity of about 80%.
# as §5
# [10] = system: Puccinia recondita; experiment: Puccinia test (wheat)/curative; settings: application rate 6.25 g/ha, curative, 10 days after inoculation
# Method: as §1, §2, §3
# as §6, with “Puccinia recondita.” for “Leptosphaeria nodorum.”, “hours. The plants” for “hours and”, “subsequently” for “then”
# The plants are placed in a greenhouse at a temperature of about 20° C. and a relative atmospheric humidity of about 80%, in order to promote the development of rust pustules.
# as §7
# [11] = system: Erysiphe graminis fsp. tritici; experiment: Erysiphe test (wheat)/protective; settings: protective, 7 days after inoculation
# Method: as §1, §2, §3
# To test for protective activity, young plants are sprayed with the preparation of active compound at the stated application rate.
# After the spray coating has dried on, the plants are dusted with spores of Erysiphe graminis fsp. tritici.
# as §4, §5
# [12] = system: Leptosphaeria nodorum; experiment: Leptosphaeria nodorum test (wheat)/protective; settings: Parastagonospora nodorum, 240 h, application rate 6.25 g/ha, protective, 10 days after inoculation, read-out: Efficacy in %
# Method: as §1, §2, §3
# (§8) To test for protective activity, young plants are sprayed with the preparation of active compound at the stated application rate. After the spray coating has dried on, the plants are sprayed with a spore suspension of Leptosphaeria nodorum. The plants remain in an incubation cabin at 20EC and 100% relative atmospheric humidity for 48 hours.
# The plants are placed in a greenhouse at a temperature of about 15° C. and a relative atmospheric humidity of 80%.
# as §7
# [13] = system: Puccinia recondita; experiment: Puccinia test (wheat)/protective; settings: Puccinia recondita, 240 h, application rate 6.25 g/ha, protective, 10 days after inoculation, read-out: Efficacy in %
# Method: as §1, §2, §3
# as §8, with “conidia” for “spore”, “Puccinia recondita.” for “Leptosphaeria nodorum.”, “20° C.” for “20EC”
# The plants are then placed in a greenhouse at a temperature of about 20° C. and a relative atmospheric humidity of 80%, in order to promote the development of rust pustules.
# as §7
compound,measurement,setting,value
CON=C(C1=NOCCO1)c1ccccc1Oc1ncnc(Oc2ccccc2Cl)c1F [(I)],Emax at 0.5 g/ha,[1],9%
same,Emax at 1 g/ha,[1],20%
same,Emax at 5 g/ha,[1],45%
same,Emax at 2.5 g/ha,[2],22%
same,Emax at 50 g/ha,[3],15%
same,Efficacy in %,[4]; application rate 25 mg/kg of seed,89%
same,Efficacy in %,[4]; application rate 75 mg/kg of seed,93%
same,Efficacy in %,[5],16%
same,Efficacy in %,[6]; application rate 6.25 g/ha,0%
same,Efficacy in %,[6]; application rate 12.5 g/ha,33%
same,Efficacy in %,[6]; application rate 25 g/ha,75%
same,Efficacy in %,[7]; application rate 6.25 g/ha,0%
same,Efficacy in %,[7]; application rate 25 g/ha,33%
same,Efficacy in %,[8]; application rate 6.25 g/ha,62%
same,Efficacy in %,[8]; application rate 12.5 g/ha,62%
same,Efficacy in %,[9],0%
same,Efficacy in %,[10],67%
same,Efficacy in %,[11]; application rate 6.25 g/ha,0%
same,Efficacy in %,[11]; application rate 12.5 g/ha,29%
same,Efficacy in %,[11]; application rate 25 g/ha,79%
same,pest or weed control at 6.25 g/ha,[12],25%
same,pest or weed control at 6.25 g/ha,[13],81%
